Results published in US20260000078A1, “ANTI-MICROBIAL SYSTEM” (The Procter & Gamble Company, priority 2024, published 2026).
≈ marks a conversion by molar mass, not a printed value.

Key:
Format in all cases: cell-based
[1] = test system: Staphylococcus aureus ATCC 6538; test: Minimal Kill Concentration (MKC) assay, 96 well plate; settings: 20-minute contact time
Method: (§1) The MKC assay is a 96 well plate method to determine the minimum concentration of a test material or composition needed to kill Gram-negative and Gram-positive bacteria (Escherichia coli ATCC 8739 and Staphylococcus aureus ATCC 6538, respectively). The bacterial suspensions are prepared from 10× freezer stocks with 15% glycerol. The freezer stocks are centrifuged at 13,000×g (Eppendorf Centrifuge […] No. 5417 05483) for 1 minute. The supernatant is removed, and the cell pellet is resuspended in 1 mL saline (Sodium chloride solution 0.9%, Cytiva REF: Z1376), and then transferred to 9 mL saline. The target cfu/ml is 10^8, which is confirmed via serial diluting and plating on TSA plates (Tryptic Soy Agar-Sigma-Aldrich Cat #22091). Then 50 μL of bacteria is added to each well of a 96 well 0.5 mL V-Bottom plate (Greiner bio-one REF: 786201) to make a bacteria plate, one separate plate for each bacterium. The dilutions of the test compounds are prepared in a separate 96 well plate. The test compounds are tested at six dilutions in duplicates or with no replication diluted across the entire plate. The test compounds are prepared in Dimethyl Sulfoxide (Sigma Aldrich GR ACS Cat. No: MX1458-6) or sterile water at 2× the intended test concentration, and then serially diluted in the appropriate vehicle 1:2 across the plate using a multichannel. 50 μL from the test compound plate is added to each well in the bacteria plate all at once using an Integra VIAFLOW 96 channel pipette (Model: VIAFLO 96) and the Integra 300 μL Head (Part No. 6103). With addition of the 2× compounds bacteria plate, the compounds are diluted to a 1× test concentration. The addition of the test compounds to the bacteria wells starts the 20-minute contact time. The plates are mixed well using a Mix-Mate (Eppendorf SE). After 20 minutes, 1 μL from each well of the bacteria plate is transferred to premade Tryptic Soy Agar (TSA) plates (OmniTray Cell Culture Treated w/Lid Sterile, Cat. No: 165218) for spot plating using the Integra VIAFLOW 96 with the Integra 12.5 μL head (Part No. 6101). Then 4 μL from each well of the bacteria/compound plate is transferred to another 96 well plate containing 36 μL of neutralizer broth Modified Letheen Broth (BD Difco Letheen Broth, Modified REF 263010). The contact time is stopped at 20 minutes once the compound plate is neutralized. The plates are mixed well using a Mix-Mate and then 1 μL of the neutralizer+sample mix is transferred to a TSA OmniTray plate using the Integra VIAFLOW and Integra 12.5 μL head. The TSA spot plates are then incubated overnight for 20 hours at 37° C. in an Incubator. This process is done for both bacteria species. After overnight incubation, the plates are removed from the incubator and the results recorded by observing which dilutions had bacterial kill/growth. The last dilution that had kill for both replicates is recorded as the MKC. A positive control of Benzalkonium chloride (Sigma Aldrich Cat. No.: 12060-5G) and vehicle controls are always included in the test.

[2] = test system: Escherichia coli ATCC 8739; test: as above; settings: 20-minute contact time
Method: as §1

[3] = test system: Staphylococcus aureus ATCC #6538; test: Minimum Inhibitory Concentration (MIC) assay with Minimum Biocidal Concentration (MBC); settings: solvent DMSO; for MIC / MBC: Staphylococcus aureus, ATCC6538; for MIC: 24±2 hrs at 35° C., OD<50% of growth control, read-out: S. aureus MIC (ppm); for MBC: read-out: S. aureus MBC (ppm)
Method: The Minimum Inhibitory Concentration (MIC) assay is a 96-well high throughput method that determines the minimum concentration of an active required to inhibit the growth of microorganisms. Compounds are evaluated against the following microorganisms: Staphylococcus aureus ATCC #6538 (American Type Culture Collection, Manassas, Virginia, USA). To prepare solutions, the bacteria are streaked on Tryptic Soy Agar (TSA, Becton Dickinson DIFCO™ Tryptic Soy Agar, Franklin Lakes, NJ, USA) and incubated at 30-35° C. for 18-24 hrs. Confluent growth is transferred to saline (0.85% NaCl and turbidometrically adjusted to a target concentration of 10^7-10^8 CFU/ml. This inoculum solution is further diluted 1:1000 in Tryptic Soy Broth (TSB, Becton Dickinson, Franklin Lakes, NJ, USA) for assay use. Two-fold serial dilutions are prepared in Dimethylsulfoxide (DMSO, Thermo Scientific Pierce DMSO, Sequencing Grade) or sterile water for each test sample. In a sterile 96-well plate, each dilution is further diluted in broth inoculum such that each well contained 5% dilution and 95% broth inoculum. Bacteria and yeast plates were incubated on an orbital shaker (Heidolph Titramax 1000 Vibrating Platform Shaker, 200-300 rpm) for 24±2 hrs at 35° C. After incubation, the optical density (OD) of each well is measured in a spectrophotometer (Victor Nivo Multimode Plate Reader) at 600 nm. […] The MBC was determined as the most dilute concentration with no visible growth.

[4] = most dilute concentration with no visible growth on neutralizing agar

Row | SMILES | MKC (ppm) S. aureus ([1]; solvent water) [ppm] | MKC (ppm) E. coli ([2]; solvent water) [ppm] | MIC [3] [µg/mL] | MBC [3, 4] [µg/mL] | MKC (ppm) S. aureus ([1]; solvent DMSO) [ppm] | MKC (ppm) E. coli ([2]; solvent DMSO) [ppm] | S. aureus MBC (ppm) [3, 4] [ppm]
1 | CCCCCC(CC(=O)O)O[C@@H]1O[C@@H](C)[C@H](O)[C@@H](O)[C@H]1O (stereo partly drawn) [RhaC8, 3-(((2R,3R,4R,5R,6S)-3,4,5-trihydroxy-6-methyltetrahydro-2H-pyran-2-yl)oxy)octanoic acid] | >1225 | >1225 | 10000 (≈ 32.6 mM) | > 10000 |  |  | 
2 | CCCCCCCC(O)CC(=O)O (racemic) [(±)-3-Hydroxydecanoic acid] | 753 | 753 |  | > 1130 |  |  | 
3 | CCCCCCCCCCCCCC(O)CC(=O)O (racemic) [DL-β-Hydroxypalmitic acid] |  |  |  |  | >1090 | 136 | 
4 | CCCCCCCC(CC(=O)O)O[C@@H]1O[C@@H](C)[C@H](O)[C@@H](O)[C@H]1O (stereo partly drawn) [RhaC10, 3-(((2R,3R,4R,5R,6S)-3,4,5-trihydroxy-6-methyltetrahydro-2H-pyran-2-yl)oxy)decanoic acid] | >1338 | >1338 | > 10000 | > 10000 |  |  | 
5 | CCCCCC(O)CC(=O)O (racemic) [(±)-3-Hydroxyoctanoic acid] | >641 | >641 |  |  |  |  | 
6 | CCCCCCCCCCCC(O)CC(=O)O (racemic) [DL-β-Hydroxymyristic acid] |  |  |  |  | 244 | 122 | 
7 | CCCCCCCCCCCC(CC(=O)O)O[C@@H]1O[C@@H](C)[C@H](O)[C@@H](O)[C@H]1O (stereo partly drawn) [RhaC14, 3-(((2R,3R,4R,5R,6S)-3,4,5-trihydroxy-6-methyltetrahydro-2H-pyran-2-yl)oxy)tetradecanoic acid] |  |  | 625 (≈ 1.6 mM) | > 10000 | 781 | 781 | 
8 | CCCCCCCCC[C@@H](O)CC(=O)O [(3R)-3-hydroxydodecanoic acid] | 865 | >865 |  |  |  |  | 
9 | CCCCCCCCCC(O)CC(=O)O (racemic) [DL-β-Hydroxylauric acid] | >865 | >865 |  |  |  |  | 650
10 | CCCCCCCCCC(CC(=O)O)O[C@@H]1O[C@@H](C)[C@H](O)[C@@H](O)[C@H]1O (stereo partly drawn) [RhaC12, 3-(((2R,3R,4R,5R,6S)-3,4,5-trihydroxy-6-methyltetrahydro-2H-pyran-2-yl)oxy)dodecanoic acid] | 725 | >1450 | 1250 (≈ 3.45 mM) | > 10000 |  |  | 
